Data published in US20220290237A1, “METHOD FOR PREDICTING THE RESPONSE OF ANTIPSYCHOTIC DRUGS” (INSERM (INSTITUT NATIONAL DE LA SANTÉ ET DE LA RECHERCHE …, priority 2019, published 2022).

Columns and labels:
[1] = Clinical response (total PANSS score change) over 4 weeks of amisulpride, OPTiMiSE first episode psychosis; type: in vivo, human
Source text: (§1) The cohort analysed in this study was obtained from the OPTiMiSE clinical trial (http://www.optimisetrial.eu) (29). After providing written informed consent, 491 patients with a first episode psychosis were included and 453 started medication. All patients were diagnosed with schizophrenia, schizophreniform disorder or schizoaffective disorder according to the Diagnostic and Statistical Manual of Mental Disorders, Fourth Edition (DSM-IV) and confirmed on the basis of the Mini International Neuropsychiatric Interview Plus (M.I.N.I. Plus) (30) (table 4). At baseline, patients were medication-naïve or minimally-treated (any antipsychotic medication used for […] 2 weeks in the previous year or for a total of 6 weeks in their lifetime) and were ill for no longer than 2 years. Only subjects involved in the single-treatment arm (phase 1) of the trial were considered for this study (29). All patients were treated for 4 weeks with amisulpride (200-800 mg/day orally). At the end of the 4-week treatment, the blood concentration of antipsychotic used has been determined. This measurement provided a reliable indication of the treatment compliance of individual patients.
A clinical response to treatment can be defined according to many criteria. […] Note that good responders were slightly older than poor responders with a lower duration of untreated psychosis and more positive symptoms (data not shown).

total RNA from PBMCs = experiment: RNA-seq gene expression before and after 4 weeks of amisulpride treatment; type: in vivo, human; conditions: 4 weeks amisulpride
Source text: as §1
A DNase digestion procedure was added after extraction. Total RNA was purified using the RNA Clean & Concentrator™-5 kit following the manufacturer's instructions (Zymo Research Corp., Irvine, USA). RNA quantification was performed on a NanoDrop™ 8000 spectrophotometer, in duplicate. The quality and integrity of the RNA samples were assessed using an Agilent Bioanalyzer 2100 and the RNA6000 Nano Labchip kit (Agilent Technologies). Only samples with an RNA integrity number (RIN) higher than 7 were selected. Three hundred and seventy-six RNA samples fulfilled quality control criteria for RNA-seq analyses, corresponding to two RNA samples (one at inclusion and one after 4 weeks of treatment) for 188 subjects. Forty-eight additional RNAs were available for replication studies, in 24 independent subjects.
All libraries were prepared using the Illumina TruSeq Stranded Total RNA with Ribo-Zero Globin kit (Illumina Inc., San Diego, Calif., U.S.A.), which removes ribosomal RNA and globin mRNA. Libraries were prepared using one microgram of total RNA as initial input and following the standard protocols. After library quality control, 2×100 bp paired-end (PE) sequencing was performed on a HiSeq4000 system (Illumina), pooling a maximum of 6 samples on each lane, in order to reach 40 to 50 million of PE-reads for each sample. The Illumina pipeline was used to generate raw RNA sequencing data (fastq files) for each sample. Sequence quality controls were performed, using FastQC and in-house bioinformatics pipelines, from a sampling of 2×10 million reads in order to assess the levels of read duplicates, adapters, remaining rRNA and the GC content. Reads were trimmed for adapters and low-quality bases (Phred quality score <30) using Trimmomatic software (v.0.32). Reads were then mapped to the Genome Reference Consortium human genome assembly 37 (GRCh37) reference genome (hg19) using Tophat software (v.2.0.13). Read mapping quality was assessed using RNA-SeQC software. Then, gene-level quantification in read counts was performed by HTSeq software (v.0.6.1), using gene annotation from Ensembl v.86. All downstream analyses were conducted using the statistical software R (v.3.2.4) and Bioconductor R packages. Genes with counts-per million (cpm) below 1 in more than two third of the samples were considered unexpressed and removed from the analysis using edgeR package (v.3.12.1). Raw gene counts matrix has been normalized to account for differences in sequencing depth and RNA composition using the “median ratio” method implemented in the DESeq2 package (v.1.16.1). To avoid batch effects as confounding factors, all subjects had their 2 time-points in a same batch. […]

[2] = admixture model of total PANSS score change over 4 weeks of treatment, 200-800 mg/day orally
[3] = of 188 subjects, 4 weeks of treatment

In the case of `CCN1CCCC1CNC(=O)c1cc(S(=O)(=O)CC)c(N)cc1OC` (centres unmarked) [amisulpride, 4-amino-N-((1-ethyl-2-pyrrolidinyl)methyl)-5-(etgylsulfonyl)-2-methoxybenzamide], the “proportion of good responders” value [1, 2] is reported as 56%, the “proportion of poor responders” value [1, 2] is reported as 44% and the “mean reduction of total PANSS score” value ([1]; good responders subpopulation of the admixture model, 4 weeks of treatment) is reported as 36.3%. For the same compound, the “patients with a less than 20% reduction in total PANSS score” value [1, 3] was 75 patients, the “patients with a more than 20% reduction in total PANSS score” value [1, 3] was 113 patients and the “mean PANSS total reduction” value ([1]; poor responders subpopulation of the admixture model, 4 weeks of treatment) was 13.0%. For the same compound, the “FC, fold-change at week 4 relative to the expression level at inclusion: AC073172.1” value (total RNA from PBMCs; good responders (n = 113)) was 0.72, the “FC, fold-change at week 4 relative to the expression level at inclusion: AC073172.1” value (total RNA from PBMCs; poor responders (n = 75)) was 0.97 and the “FC, fold-change at week 4 relative to the expression level at inclusion: AC092171.4” value (total RNA from PBMCs; good responders (n = 113)) was 0.85. The “FC, fold-change at week 4 relative to the expression level at inclusion: AC092171.4” value (total RNA from PBMCs; poor responders (n = 75)) was 1.06, the “FC, fold-change at week 4 relative to the expression level at inclusion: AC132872.1” value (total RNA from PBMCs; good responders (n = 113)) was 0.81 and the “FC, fold-change at week 4 relative to the expression level at inclusion: AC132872.1” value (total RNA from PBMCs; poor responders (n = 75)) was 1.05. The “FC, fold-change at week 4 relative to the expression level at inclusion: ACSL5” value (total RNA from PBMCs; good responders (n = 113)) was 1.06, the “FC, fold-change at week 4 relative to the expression level at inclusion: ACSL5” value (total RNA from PBMCs; poor responders (n = 75)) was 0.99 and the “FC, fold-change at week 4 relative to the expression level at inclusion: AL133351.4” value (total RNA from PBMCs; good responders (n = 113)) was 0.88. For the same compound, the “FC, fold-change at week 4 relative to the expression level at inclusion: AL133351.4” value (total RNA from PBMCs; poor responders (n = 75)) was 1.04, the “FC, fold-change at week 4 relative to the expression level at inclusion: AL391832.3” value (total RNA from PBMCs; good responders (n = 113)) was 0.88 and the “FC, fold-change at week 4 relative to the expression level at inclusion: AL391832.3” value (total RNA from PBMCs; poor responders (n = 75)) was 1.00. For the same compound, the “FC, fold-change at week 4 relative to the expression level at inclusion: ALG1L13P” value (total RNA from PBMCs; good responders (n = 113)) was 0.89, the “FC, fold-change at week 4 relative to the expression level at inclusion: ALG1L13P” value (total RNA from PBMCs; poor responders (n = 75)) was 1.02 and the “FC, fold-change at week 4 relative to the expression level at inclusion: ALPL” value (total RNA from PBMCs; good responders (n = 113)) was 0.79. For the same compound, the “FC, fold-change at week 4 relative to the expression level at inclusion: ALPL” value (total RNA from PBMCs; poor responders (n = 75)) was 1.09, the “FC, fold-change at week 4 relative to the expression level at inclusion: AP000640.1” value (total RNA from PBMCs; good responders (n = 113)) was 0.84 and the “FC, fold-change at week 4 relative to the expression level at inclusion: AP000640.1” value (total RNA from PBMCs; poor responders (n = 75)) was 1.00. For the same compound, the “FC, fold-change at week 4 relative to the expression level at inclusion: C15orf54” value (total RNA from PBMCs; good responders (n = 113)) was 1.18, the “FC, fold-change at week 4 relative to the expression level at inclusion: C15orf54” value (total RNA from PBMCs; poor responders (n = 75)) was 1.07 and the “FC, fold-change at week 4 relative to the expression level at inclusion: CA4” value (total RNA from PBMCs; good responders (n = 113)) was 0.76. For the same compound, the “FC, fold-change at week 4 relative to the expression level at inclusion: CA4” value (total RNA from PBMCs; poor responders (n = 75)) was 1.07, the “FC, fold-change at week 4 relative to the expression level at inclusion: CXCR6” value (total RNA from PBMCs; good responders (n = 113)) was 1.14 and the “FC, fold-change at week 4 relative to the expression level at inclusion: CXCR6” value (total RNA from PBMCs; poor responders (n = 75)) was 1.03. For the same compound, the “FC, fold-change at week 4 relative to the expression level at inclusion: CYSLTR2” value (total RNA from PBMCs; good responders (n = 113)) was 1.13, the “FC, fold-change at week 4 relative to the expression level at inclusion: CYSLTR2” value (total RNA from PBMCs; poor responders (n = 75)) was 1.01 and the “FC, fold-change at week 4 relative to the expression level at inclusion: DGAT2” value (total RNA from PBMCs; good responders (n = 113)) was 0.87. The “FC, fold-change at week 4 relative to the expression level at inclusion: DGAT2” value (total RNA from PBMCs; poor responders (n = 75)) was 1.08 and the “FC, fold-change at week 4 relative to the expression level at inclusion: DHRS13” value (total RNA from PBMCs; DHRS13, good responders (n = 113)) was 0.87.
